Assay results published in patent publication US10092570B2 (Incyte Corporation, priority 2011, dated 2018).
Structures can show the parent of a compound that is named as a salt.

Molecular target: PI3Kδ (p110δ/p85α) (Homo sapiens (Human), UniProt O00329)
Experiment: Example A3: PI3Kδ scintillation proximity assay
Assay type: biochemical
Conditions: scintillation proximity assay, 20 μM ATP, 4 nM PI3Kδ; read-out: PI3Kδ SPA IC50
Experimental: [γ-^33P]ATP (10 mCi/mL) was purchased from Perkin-Elmer (Waltham, Mass.). […] PI3Kδ (p110δ/p85α) was purchased from Millipore (Bedford, Mass.). ATP, MgCl2, DTT, EDTA, MOPS and CHAPS were purchased from Sigma-Aldrich (St. Louis, Mo.). Wheat Germ Agglutinin (WGA) YSi SPA Scintillation Beads was purchased from GE healthcare life sciences (Piscataway, N.J.).
The kinase reaction was conducted in polystyrene 384-well matrix white plate from Thermo Fisher Scientific in a final volume of 25 μL. Inhibitors were first diluted serially in DMSO and added to the plate wells before the addition of other reaction components. The final concentration of DMSO in the assay was 0.5%. The PI3K assays were carried out at room temperature in 20 mM MOPS, pH 6.7, 10 mM MgCl2, 5 mM DTT and CHAPS 0.03%. Reactions were initiated by the addition of ATP, the final reaction mixture consisted of 20 μM PIP2, 20 μM ATP, 0.2 μCi [γ-^33P] ATP, 4 nM PI3Kδ. […] 25 mM EDTA, 400 μM ATP. The final concentration of SPA beads was 1.0 mg/mL. After the plate sealing, plates were shaken overnight at room temperature and centrifuged at 1800 rpm for 10 minutes, the radioactivity of the product was determined by scintillation counting on Topcount (Perkin-Elmer). IC50 determination was performed by fitting the curve of percent control activity versus the log of the inhibitor concentration using the GraphPad Prism 3.0 software.

Sequence of PI3Kδ (p110δ/p85α) (O00329 whole entry): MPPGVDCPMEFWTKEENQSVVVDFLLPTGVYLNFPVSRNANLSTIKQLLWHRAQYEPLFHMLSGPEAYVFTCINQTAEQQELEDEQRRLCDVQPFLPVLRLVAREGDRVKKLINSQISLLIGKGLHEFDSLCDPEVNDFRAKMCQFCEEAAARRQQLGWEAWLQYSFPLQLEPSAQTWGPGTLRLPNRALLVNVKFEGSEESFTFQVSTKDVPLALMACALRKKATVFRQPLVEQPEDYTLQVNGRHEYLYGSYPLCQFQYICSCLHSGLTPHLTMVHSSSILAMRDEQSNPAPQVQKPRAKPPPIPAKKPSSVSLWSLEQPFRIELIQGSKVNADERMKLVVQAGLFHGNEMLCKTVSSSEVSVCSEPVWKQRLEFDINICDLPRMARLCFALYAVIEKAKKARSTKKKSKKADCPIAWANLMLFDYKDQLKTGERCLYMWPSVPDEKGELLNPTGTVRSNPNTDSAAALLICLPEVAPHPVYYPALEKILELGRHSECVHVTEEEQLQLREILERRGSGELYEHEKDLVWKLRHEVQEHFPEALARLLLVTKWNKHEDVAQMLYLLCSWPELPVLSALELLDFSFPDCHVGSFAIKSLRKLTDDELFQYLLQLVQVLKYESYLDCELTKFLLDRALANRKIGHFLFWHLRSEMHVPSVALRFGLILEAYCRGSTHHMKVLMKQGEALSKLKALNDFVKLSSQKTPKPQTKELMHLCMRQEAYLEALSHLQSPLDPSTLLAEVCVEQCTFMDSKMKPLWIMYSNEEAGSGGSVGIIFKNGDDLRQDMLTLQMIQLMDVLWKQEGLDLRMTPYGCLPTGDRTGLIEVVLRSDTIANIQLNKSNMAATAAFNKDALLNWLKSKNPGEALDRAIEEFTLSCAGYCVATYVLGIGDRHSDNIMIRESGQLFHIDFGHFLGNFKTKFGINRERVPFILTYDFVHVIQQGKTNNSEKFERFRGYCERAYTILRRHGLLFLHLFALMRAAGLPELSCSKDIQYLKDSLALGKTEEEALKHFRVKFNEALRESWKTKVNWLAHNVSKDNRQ
Sequence of PI3Kδ (p110δ/p85α) (P27986 whole entry partner): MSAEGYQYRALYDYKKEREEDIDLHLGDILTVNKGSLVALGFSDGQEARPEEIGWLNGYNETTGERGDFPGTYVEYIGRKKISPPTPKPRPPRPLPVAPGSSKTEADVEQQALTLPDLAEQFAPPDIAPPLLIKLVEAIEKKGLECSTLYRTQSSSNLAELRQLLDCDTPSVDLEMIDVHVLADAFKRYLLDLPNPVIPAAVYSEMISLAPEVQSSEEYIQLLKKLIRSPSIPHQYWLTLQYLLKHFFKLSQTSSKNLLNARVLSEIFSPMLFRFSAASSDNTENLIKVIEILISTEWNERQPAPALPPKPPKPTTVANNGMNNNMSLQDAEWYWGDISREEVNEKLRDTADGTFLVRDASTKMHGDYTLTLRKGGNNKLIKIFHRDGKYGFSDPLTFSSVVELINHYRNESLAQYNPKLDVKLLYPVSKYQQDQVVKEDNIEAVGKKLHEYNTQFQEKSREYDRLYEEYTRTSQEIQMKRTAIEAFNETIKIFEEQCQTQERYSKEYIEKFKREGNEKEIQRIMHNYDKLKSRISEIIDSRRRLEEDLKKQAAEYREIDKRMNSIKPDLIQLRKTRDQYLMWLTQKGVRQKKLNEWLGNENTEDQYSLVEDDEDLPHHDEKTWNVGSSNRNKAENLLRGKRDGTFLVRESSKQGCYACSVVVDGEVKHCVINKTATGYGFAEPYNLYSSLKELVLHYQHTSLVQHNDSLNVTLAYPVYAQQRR

IC50	Structure (SMILES)
< 0.01 µM	CCC(C)N1CC(c2c(C)c(Cl)cc(C(C)n3nc(C)c4c(N)ncnc43)c2OC)C1 (stereo not drawn) [Example 8, 1-{1-[3-(1-sec-butylazetidin-3-yl)-5-chloro-2-methoxy-4-methylphenyl]ethyl}-3-methyl-1H-pyrazolo[3,4-d]pyrimidin-4-amine]
< 0.01 µM	COc1c(C(C)n2nc(C)c3c(N)ncnc32)cc(Cl)c(C)c1C1CN(C(CO)C(F)(F)F)C1 (stereo not drawn) [Example 113, 2-(3-{3-[1-(4-Amino-3-methyl-1H-pyrazolo[3,4-d]pyrimidin-1-yl)ethyl]-5-chloro-2-methoxy-6-methylphenyl}azetidin-1-yl)-3,3,3-trifluoropropan-1-ol]
< 0.01 µM	CCOc1c(C(C)n2nc(C)c3c(N)ncnc32)cc(Cl)c(C)c1C1CN(CC(C)(C)O)C1 (single isomer, unassigned) [Example 98, 1-(3-{3-[1-(4-Amino-3-methyl-1H-pyrazolo[3,4-d]pyrimidin-1-yl)ethyl]-5-chloro-2-ethoxy-6-methylphenyl}azetidin-1-yl)-2-methylpropan-2-ol]
< 0.01 µM	CCOc1c(C(C)n2nc(C)c3c(N)ncnc32)cc(Cl)c(C#N)c1C1CN(C(C)CO)C1 (single isomer, unassigned) [Example 224, 4-[1-(4-Amino-3-methyl-1H-pyrazolo[3,4-d]pyrimidin-1-yl)ethyl]-6-chloro-3-ethoxy-2-[1-(2-hydroxy-1-methylethyl)azetidin-3-yl]benzonitrile]
< 0.01 µM	COc1c(C(C)n2cc(C)c3c(N)ncnc32)cc(Cl)c(C)c1-c1ccc(C(=O)N(C)C)nc1 (racemic) [Example 42, 5-{3-[1-(4-Amino-5-methyl-7H-pyrrolo[2,3-d]pyrimidin-7-yl)ethyl]-5-chloro-2-methoxy-6-methylphenyl}-N,N-dimethylpyridine-2-carboxamide]
< 0.01 µM	COc1c(C(C)n2nc(C)c3c(N)ncnc32)cc(Cl)c(C)c1C1CN(C(C)=O)C1 (stereo not drawn) [Example 2, 1-{1-[3-(1-Acetylazetidin-3-yl)-5-chloro-2-methoxy-4-methylphenyl]ethyl}-3-methyl-1H-pyrazolo[3,4-d]pyrimidin-4-amine trifluoroacetate]
< 0.01 µM	CCOc1c(C(C)n2cc(C)c3c(N)ncnc32)cc(Cl)c(C#N)c1C1CN(C[C@H](C)O)C1 (stereo partly drawn) [Example 309, 4-[1-(4-Amino-5-methyl-7H-pyrrolo[2,3-d]pyrimidin-7-yl)ethyl]-6-chloro-3-ethoxy-2-{1-[(2S)-2-hydroxypropyl]azetidin-3-yl}benzonitrile]
< 0.01 µM	COc1c(C(C)n2nc(C(F)F)c3c(N)ncnc32)cc(C#N)c(C)c1C1CN(C[C@H](C)O)C1 (stereo partly drawn) [Example 131, 5-{1-[4-Amino-3-(difluoromethyl)-1H-pyrazolo[3,4-d]pyrimidin-1-yl]ethyl}-3-{1-[(2S)-2-hydroxypropyl]azetidin-3-yl}-4-methoxy-2-methylbenzonitrile]
< 0.01 µM	COc1c(C(C)n2nc(C)c3c(N)ncnc32)cc(Cl)c(Cl)c1C1CN(C[C@H](C)O)C1 (stereo partly drawn) [Example 301, (2S)-1-(3-{3-[1-(4-Amino-3-methyl-1H-pyrazolo[3,4-d]pyrimidin-1-yl)ethyl]-5,6-dichloro-2-methoxyphenyl}azetidin-1-yl)propan-2-ol]
< 0.01 µM	CCOc1c(C(C)n2nc(C)c3c(N)ncnc32)cc(Cl)c(C#N)c1C1CN(C(=O)OC(C)C)C1 (single isomer, unassigned) [Example 254, Isopropyl 3-{3-[1-(4-amino-3-methyl-1H-pyrazolo[3,4-d]pyrimidin-1-yl)ethyl]-5-chloro-6-cyano-2-ethoxyphenyl}azetidine-1-carboxylate]
< 0.01 µM	CNC(=O)N1CC(c2c(C#N)c(Cl)cc(C(C)n3nc(C)c4c(N)ncnc43)c2OC)C1 (single isomer, unassigned) [Example 294, 3-{3-[1-(4-Amino-3-methyl-1H-pyrazolo[3,4-d]pyrimidin-1-yl)ethyl]-5-chloro-6-cyano-2-methoxyphenyl}-N-methylazetidine-1-carboxamide]
< 0.01 µM	CCNC(=O)c1c(C)c(Cl)cc(C(C)n2nc(-c3ccc4[nH]ccc4c3)c3c(N)ncnc32)c1OCC (racemic) [Example 93, 3-{1-[4-Amino-3-(1H-indol-5-yl)-1H-pyrazolo[3,4-d]pyrimidin-1-yl]ethyl}-5-chloro-2-ethoxy-N-ethyl-6-methylbenzamide]
< 0.01 µM	COc1c(C(C)n2nc(C)c3c(N)ncnc32)cc(Cl)c(F)c1C1CN(C)C1 (stereo not drawn) [Example 72]
< 0.01 µM	CCOc1c(C(C)n2nc(C)c3c(N)ncnc32)cc(Cl)c(C#N)c1-c1ccc(C(C)(C)O)nc1 (racemic) [Example 316, 4-[1-(4-amino-3-methyl-1H-pyrazolo[3,4-d]pyrimidin-1-yl)ethyl]-6-chloro-3-ethoxy-2-[6-(1-hydroxy-1-methylethyl)pyridin-3-yl]benzonitrile]
< 0.01 µM	CCOc1c(C(C)n2nc(C)c3c(N)ncnc32)cc(Cl)c(C#N)c1C1CN(CC2CC2)C1 (single isomer, unassigned) [Example 217, 4-[1-(4-Amino-3-methyl-1H-pyrazolo[3,4-d]pyrimidin-1-yl)ethyl]-6-chloro-2-[1-(cyclopropylmethyl)azetidin-3-yl]-3-ethoxybenzonitrile]
< 0.01 µM	CCOc1c(C(C)n2nc(C)c3c(N)ncnc32)cc(Cl)c(C#N)c1C1CN(C2CCOC2)C1 (single isomer, unassigned) [Example 228, 4-[1-(4-Amino-3-methyl-1H-pyrazolo[3,4-d]pyrimidin-1-yl)ethyl]-6-chloro-3-ethoxy-2-[1-(tetrahydrofuran-3-yl)azetidin-3-yl]benzonitrile]
< 0.01 µM	COc1c(C(C)n2nc(C(F)F)c3c(N)ncnc32)cc(Cl)c(F)c1C1CN(C(C)C)C1 (stereo not drawn) [Example 73, 1-{1-[5-Chloro-4-fluoro-3-(1-isopropylazetidin-3-yl)-2-methoxyphenyl]ethyl}-3-(difluoromethyl)-1H-pyrazolo[3,4-d]pyrimidin-4-amine]
< 0.01 µM	COc1c(C(C)n2nc(C)c3c(N)ncnc32)cc(Cl)c(C#N)c1C1CN(S(C)(=O)=O)C1 (single isomer, unassigned) [Example 285, 4-[1-(4-Amino-3-methyl-1H-pyrazolo[3,4-d]pyrimidin-1-yl)ethyl]-6-chloro-3-methoxy-2-[1-(methylsulfonyl)azetidin-3-yl]benzonitrile]

Structure (SMILES)	IC50
CCOc1c(C(C)n2nc(C)c3c(N)ncnc32)cc(Cl)c(F)c1C1CN(CC(F)F)C1 (racemic) [Example 147, 1-(1-{5-Chloro-3-[1-(2,2-difluoroethyl)azetidin-3-yl]-2-ethoxy-4-fluorophenyl}ethyl)-3-methyl-1H-pyrazolo[3,4-d]pyrimidin-4-amine]	< 0.01 µM
COc1c(C(C)n2nc(C(F)F)c3c(N)ncnc32)cc(C#N)c(C)c1C1CN(CC(F)F)C1 (racemic) [Example 136, 5-{1-[4-Amino-3-(difluoromethyl)-1H-pyrazolo[3,4-d]pyrimidin-1-yl]ethyl}-3-[1-(2,2-difluoroethyl)azetidin-3-yl]-4-methoxy-2-methylbenzonitrile]	< 0.01 µM
CCOc1c(C(C)n2nc(C)c3c(N)ncnc32)cc(Cl)c(C#N)c1-c1ccc(-c2nnc(C)o2)nc1 (racemic) [Example 338, 4-[1-(4-amino-3-methyl-1H-pyrazolo[3,4-d]pyrimidin-1-yl)ethyl]-6-chloro-3-ethoxy-2-[6-(5-methyl-1,3,4-oxadiazol-2-yl)pyridin-3-yl]benzonitrile]	< 0.01 µM
